# Test results published in article PMC9570995, “Design, Synthesis, and Biological Evaluation of Novel Dihydropyridine and Pyridine Analogs as Potent Human Tissue Nonspecific Alkaline Phosphatase Inhibitors with Anticancer Activity: ROS and DNA Damage-Induced Apoptosis” (Molecules, 2022).
# What was measured:
# HeLa cells = test: Microscopic evaluation of ROS generation (H2DCF-DA); assay type: cell-based; settings: IC50 and 2 × IC50, versus control
# Excerpt: The production of reactive oxygen species (ROS) has been an extensively researched topic in medicinal chemistry due to their involvement in numerous biochemical phases of health and disease. In a biological system, redox-sensitive fluorogenic materials such as 2′,7′-dichlorodihydrofluorescein-diacetate (DCFH2-DA) are commonly used to investigate the production of ROS during oxidative stress. It easily penetrates through the cell membrane, where esterase enzyme hydrolyzes the acetate group to a more hydrophilic group, which further oxidizes in the cytoplasmic region to give rise to a highly fluorescent product. In this study, the HeLa cells were used to investigate the production of ROS. The non-fluorescent material 2′,7′-dichlorodihydrofluorescein (DCFH2) converts into the fluorescent 2′,7′-dichlorofluorescein (DCF) under intracellular oxidative stress.
# The production of reactive oxygen species (ROS) in compound 4d-treated HeLa cells was observed by applying a published protocol with some modifications. Cells at a density of 2 × 10^5 cells/well/mL were grown on round coverslips in a 24-well plate and kept in an incubator having humid 5% CO2 and 95% air at 37 °C. […] Cells were gently washed with PBS to remove excess dye, and images were captured at a magnification of 20× using excitation/emission filters at 488/530 nm with the help of a fluorescence microscope (Nikon ECLIPSE Ni–U).
# Herring sperm DNA = test: Fluorescence emission titration with DNA; assay type: binding; settings: compound 10 µM, DMF/H2O (1:9, v/v)
# Protocol: The fluorescence emission studies of compound 4d (10 µM) were accomplished in DMF/H2O (1:9, v/v) before and after the continual addition of DNA (0–50 µg/mL) to probe out the compound-DNA interaction. […] As evident in Figure 8, the fluorescence emission of compound 4d was attenuated by ~55% (calculated through I0/I) upon the maximum addition of 50 µg/mL of DNA. The substantial fluorescence quenching behavior of 4d upon the addition of DNA is perhaps attributed to the efficient binding of the compound to the minor groove of DNA [68]. […] Next, the excellent binding efficiency of compound 4d with DNA was well elucidated through the Stern–Volmer (SV) plot, which was produced between the increased fluorescence quenching efficiency and increasing concentration of DNA solution. […]
# Reagent grade solvents were used for purification purposes. Silica gel with 70–230 mesh size and pure solvents were used for the column chromatography. ^1H, ^13C, and DEPT-135 NMR spectra were recorded on a 400 MHz spectrometer using DMSO as the solvent and TMS as the internal standard. The chemical shifts, multiplicity, and coupling constants were calculated from data obtained through the FID file. […] The IC50 and percent inhibition were calculated by using GraphPad software. […] The optical density was measured through a microplate reader at 570 nm. […]
smiles,measurement,setting,value
"N#CC1=C(N)N(Cc2ccccc2)C(N)=C(C#N)C1c1ccc2ccccc2c1 [Compound 4d, 2,6-Diamino-1-benzyl-4-(naphthalen-2-yl)-1,4-dihydropyridine-3,5-dicarbonitrile]",production of ROS,HeLa cells,dose-dependent increase
same,Stern–Volmer constant (Ksv),Herring sperm DNA; DNA 0–50 µg/mL,34100 M⁻¹
same,attenuation of fluorescence emission,"Herring sperm DNA; 50 µg/mL DNA, emission 410 nm",~ 55%
